The text below walks through data of patent US20080090805A1, “CB-1 MODULATING COMPOUNDS AND THEIR USE” (ACADIA PHARMACEUTICALS INC., priority 2005, published 2008).

SMILES strings stand for the structures.

Data set [1] can be described thus: Clearance study, liver microsomes (human). Conditions: pH 7.4. On the technique in general: Liver microsomes are a subcellular fraction often used to study metabolism.
Data set [2] can be described thus: Clearance study, liver microsomes (rats). As to conditions: rat, pH 7.4.
In another data set the test system is NSA mice. In words: Hypothermia study (block of CP 55,940-induced hypothermia). On the set-up: Hypothermia 3 mg/kg / Hypothermia 0.3 mg/kg: unit not given here. In kind it is in vivo. Conditions: for Hypothermia ID50: block of CP 55,940-induced hypothermia. Here is the method:
. […] Core body temperatures were then obtained at various time points following CP 55,940 administration. Core body temperature (to the nearest 0.1° C.) was obtained by rectal probe.

With `CCCCNC(=O)c1ccc2c(c1)N=C(c1ccc(Cl)s1)c1cc(Cl)ccc1S2` [drawing 1678], the intrinsic clearance (microsomal CLint) (commonly a measure of how fast metabolising enzymes remove a compound, apart from limits set by blood flow) at 1 μM came out at 22 µL/min/mg in data set [1] and 63 µL/min/mg in data set [2].

Regarding `O=C(NCc1cccc(Cl)c1)c1ccc2c(c1)N=C(c1cccc(Cl)c1)c1cc(F)ccc1S2` [drawing 1805], the intrinsic clearance (microsomal CLint) at 1 μM in data set [1] is 10 µL/min/mg; in data set [2], 61 µL/min/mg.

As to `O=C(NCc1ccccc1Cl)c1ccc2c(c1)N=C(c1ccccc1)c1ccccc1S2` [drawing 1780], the intrinsic metabolic clearance (microsomal CLint) at 1 μM was 57 µL/min/mg in data set [1] and 178 µL/min/mg in data set [2].

As for `O=C(NCCCC(F)(F)F)c1ccc2c(c1)N=C(c1ccc(Cl)cc1)c1ccccc1S2` [drawing 1703], the results for the microsomal CLint at 1 μM in data set [1] and in data set [2] were 13 µL/min/mg and 86 µL/min/mg, respectively.

For the compound `CCCCNC(=O)c1ccc2c(c1)N=C(c1ccc(Cl)s1)c1ccc(Cl)cc1S2` [drawing 1694], the values for the microsomal CLint at 1 μM in data set [1] and in data set [2] were 15 µL/min/mg and 55 µL/min/mg, respectively.

Turning to `O=C(NCc1ccccc1Br)c1ccc2c(c1)N=C(c1ccc(Cl)cc1)c1ccccc1S2` [drawing 1788], the intrinsic metabolic clearance (microsomal CLint) at 1 μM was found to be 10 µL/min/mg in data set [1] and 36 µL/min/mg in data set [2].

Take `Cc1csc(CNC(=O)c2ccc3c(c2)N=C(c2cccc(C)n2)c2ccccc2S3)c1` [drawing 1727]: the microsomal CLint at 1 μM in data set [1] turned out to be 113 µL/min/mg; in data set [2], 725 µL/min/mg.

Regarding `Cc1ccsc1C1=Nc2cc(C(=O)NCCCC(F)(F)F)ccc2Sc2ccccc21` [drawing 1701], the figures for the microsomal CLint at 1 μM in data set [1] and in data set [2] were 379 µL/min/mg and 297 µL/min/mg, respectively.

With `O=C(NCCc1ccc(Cl)cc1)c1ccc2c(c1)N=C(N1CCCCC1)c1ccccc1S2` [drawing 1783], the intrinsic metabolic clearance (microsomal CLint) at 1 μM turned out to be 434 µL/min/mg in data set [1] and 506 µL/min/mg in data set [2].

Turning to `CCCCNC(=O)c1ccc2c(c1)N=C(c1cccc(Cl)c1)c1cc(F)ccc1S2` [drawing 1682], the results for the microsomal CLint at 1 μM in data set [1] and in data set [2] were 16 µL/min/mg and 63 µL/min/mg, respectively.

With `CCCCNC(=O)c1ccc2c(c1)N=C(c1ccc(Cl)cc1)c1cc(Cl)ccc1S2` [drawing 1688], the microsomal CLint at 1 μM in data set [1] was 13 µL/min/mg; in data set [2], 52 µL/min/mg.

Take `CC(C)CNC(=O)c1ccc2c(c1)N=C(c1ccc(Cl)s1)c1ccc(Cl)cc1S2` [drawing 1679]: the values for the intrinsic metabolic clearance (microsomal CLint) at 1 μM in data set [1] and in data set [2] were 5 µL/min/mg and 56 µL/min/mg, respectively.

On to `CC(CNC(=O)c1ccc2c(c1)N=C(c1ccc(Cl)cc1)c1ccccc1S2)c1ccccc1` (stereo not drawn) [drawing 1743], for which the intrinsic clearance (microsomal CLint) at 1 μM in data set [1] was 62 µL/min/mg; in data set [2], 179 µL/min/mg.

`O=C(NCCc1ccc(Cl)cc1)c1ccc2c(c1)N=C(N1CCC(F)(F)CC1)c1ccccc1S2` [drawing 1802]: the intrinsic metabolic clearance (microsomal CLint) at 1 μM in data set [1] came out at 343 µL/min/mg; in data set [2], 289 µL/min/mg.

For `CCN(CCNC(=O)c1ccc2c(c1)N=C(c1ccc(F)cc1)c1ccccc1S2)c1ccccc1` [drawing 1749], the microsomal CLint at 1 μM was determined as 278 µL/min/mg in data set [1] and 484 µL/min/mg in data set [2].

With `CC(C)CNC(=O)c1ccc2c(c1)N=C(c1ccc(Cl)cn1)c1ccc(F)cc1S2` [drawing 1746], the intrinsic metabolic clearance (microsomal CLint) at 1 μM in data set [1] is 25 µL/min/mg; in data set [2] it was 175 µL/min/mg.

On to `O=C(NCCc1ccc(Cl)cc1)c1ccc2c(c1)N=C(C1CCCCC1)c1ccccc1S2` [drawing 1737], for which the intrinsic clearance (microsomal CLint) at 1 μM in data set [1] was found to be 138 µL/min/mg; in data set [2] it was 230 µL/min/mg.

In the case of `O=C(NN1CCCCC1)c1ccc2c(c1)N=C(N1CCCCC1)c1ccccc1S2` [drawing 1792], the microsomal CLint at 1 μM is 54 µL/min/mg in data set [1] and 536 µL/min/mg in data set [2].

For `O=C(NCCc1ccccc1)c1ccc2c(c1)N=C(c1ccc(Cl)cc1)c1ccccc1S2` [drawing 1745], the intrinsic metabolic clearance (microsomal CLint) at 1 μM in data set [1] was found to be 62 µL/min/mg; in data set [2] it was 144 µL/min/mg.

`Cc1ccc(CNC(=O)c2ccc3c(c2)N=C(c2ccc(Cl)s2)c2ccccc2S3)o1` [drawing 1697]: the intrinsic metabolic clearance (microsomal CLint) at 1 μM turned out to be 30 µL/min/mg in data set [1] and 124 µL/min/mg in data set [2].

In the case of `CC(CNC(=O)c1ccc2c(c1)N=C(c1cccc(Cl)c1)c1ccccc1S2)c1ccccc1` (stereo not drawn) [drawing 1755], the microsomal CLint at 1 μM in data set [1] worked out at 56 µL/min/mg; in data set [2] it was 174 µL/min/mg.

As for `O=C(NCCCC(F)(F)F)c1ccc2c(c1)N=C(c1cccc(F)c1)c1ccccc1S2` [drawing 1719], the intrinsic clearance (microsomal CLint) at 1 μM in data set [1] came to 24 µL/min/mg; in data set [2] it was 182 µL/min/mg.

Consider `COc1cccc(C2=Nc3cc(C(=O)NCCCC(F)(F)F)ccc3Sc3ccccc32)n1` [drawing 1667], for which the microsomal CLint at 1 μM amounted to 24 µL/min/mg in data set [1] and 144 µL/min/mg in data set [2].

Consider `O=C(NCc1cccc(Cl)c1)c1ccc2c(c1)N=C(N1CCC(F)CC1)c1ccccc1S2` [drawing 1714], for which the microsomal CLint at 1 μM was found to be 96 µL/min/mg in data set [1] and 477 µL/min/mg in data set [2].

With `O=C(NCc1ccc(Cl)cc1Cl)c1ccc2c(c1)N=C(c1ccc(Cl)cc1)c1ccccc1S2` [drawing 1796], the microsomal CLint at 1 μM amounted to 1 µL/min/mg in data set [1] and 5 µL/min/mg in data set [2].

`COc1ccc(C2=Nc3cc(C(=O)NCCC(C)C)ccc3Sc3ccccc32)cc1` [drawing 1785]: the results for the intrinsic clearance (microsomal CLint) at 1 μM in data set [1] and in data set [2] were 123 µL/min/mg and 177 µL/min/mg, respectively.

As for `CC(CNC(=O)c1ccc2c(c1)N=C(c1ccc(Cl)cc1)c1cc(F)ccc1S2)c1ccccc1` (stereo not drawn) [drawing 1716], the microsomal CLint at 1 μM in data set [1] stood at 39 µL/min/mg; in data set [2] it was 165 µL/min/mg.

Consider `Cc1ccc(CNC(=O)c2ccc3c(c2)N=C(c2cccc(Cl)c2)c2ccccc2S3)o1` [drawing 1705], for which the values for the intrinsic clearance (microsomal CLint) at 1 μM in data set [1] and in data set [2] were 37 µL/min/mg and 147 µL/min/mg, respectively.

Consider `CC(C)CCNC(=O)c1ccc2c(c1)N=C(c1ccccn1)c1ccccc1S2` [drawing 1649], for which, in the data set with NSA mice, the “Hypothermia 3 mg/kg” value came out at 21.

On to `O=C(NCc1ccccc1Cl)c1ccc2c(c1)N=C(c1cccc(Cl)c1)c1ccccc1S2` [drawing 1573], for which the “Hypothermia 3 mg/kg” value in the data set with NSA mice is on record as −2.

Turning to `CCCCNC(=O)c1ccc2c(c1)N=C(c1ccc(Cl)c(F)c1)c1ccccc1S2` [drawing 1626], the “Hypothermia 3 mg/kg” value in the data set with NSA mice is 79.

`C[C@@H]1CCC[C@H](C)N1NC(=O)c1ccc2c(c1)N=C(c1cccc(Cl)c1)c1ccccc1S2` [drawing 1605]: in the data set on NSA mice, the “Hypothermia 3 mg/kg” value was −2.

Consider `CCCCNC(=O)c1ccc2c(c1)N=C(c1ccc(Cl)s1)c1ccccc1S2` [drawing 1568], for which, in the data set on NSA mice, the “Hypothermia 0.3 mg/kg” value is 12, the “Hypothermia 3 mg/kg” value is on record as 53 and the Hypothermia ID50 was determined as 2.3 mg/kg.

As to `O=C(NCc1ccc(F)cc1)c1ccc2c(c1)N=C(C1CCCCC1)c1ccccc1S2` [drawing 1640], in the data set on NSA mice, the “Hypothermia 0.3 mg/kg” value amounted to 24, the “Hypothermia 3 mg/kg” value was determined as 80 and the Hypothermia ID50 turned out to be 1.5 mg/kg.

In the case of `O=C(NCc1cccs1)c1ccc2c(c1)N=C(c1cccc(Cl)c1)c1ccccc1S2` [drawing 1622], the “Hypothermia 3 mg/kg” value in the data set on NSA mice came to 61.

Consider `O=C(NCc1ccco1)c1ccc2c(c1)N=C(c1ccc(F)cc1)c1ccccc1S2` [drawing 1553], for which, in the data set with NSA mice, the “Hypothermia 0.3 mg/kg” value was −11, the “Hypothermia 3 mg/kg” value came to 90 and the Hypothermia ID50 came to 1.2 mg/kg.

For the compound `Cc1ccsc1C1=Nc2cc(C(=O)NN3CCCCCC3)ccc2Sc2ccccc21` [drawing 1597], the “Hypothermia 3 mg/kg” value in the data set on NSA mice stood at 18.

Take `Cc1ccsc1C1=Nc2cc(C(=O)NCCCC(F)(F)F)ccc2Sc2ccccc21` [drawing 1598]: the “Hypothermia 3 mg/kg” value in the data set with NSA mice is on record as 24.

With `CCCCNC(=O)c1ccc2c(c1)N=C(c1ccc(Cl)s1)c1ccc(Cl)cc1S2` [drawing 1589], the “Hypothermia 3 mg/kg” value with NSA mice is 1.

Regarding `O=C(NCc1cccnc1)c1ccc2c(c1)N=C(c1ccc(Br)cc1)c1ccccc1S2` [drawing 1613], in the data set with NSA mice, the “Hypothermia 3 mg/kg” value came to 2.

Regarding `O=C(NC1CCCCC1)c1ccc2c(c1)N=C(c1ccc(F)cc1)c1ccccc1S2` [drawing 1580], in the data set on NSA mice, the “Hypothermia 0.3 mg/kg” value is listed as 28 and the “Hypothermia 3 mg/kg” value is given as 82.

`Cc1ccsc1C1=Nc2cc(C(=O)NN3CCCCC3)ccc2Sc2ccccc21` [drawing 1615]: in the data set with NSA mice, the “Hypothermia 3 mg/kg” value came out at 31.

Take `Cc1csc(CNC(=O)c2ccc3c(c2)N=C(c2sccc2C)c2ccccc2S3)c1` [drawing 1610]: the “Hypothermia 3 mg/kg” value with NSA mice is −2.

Turning to `CCCCNC(=O)c1ccc2c(c1)N=C(c1ccc(Cl)cc1)c1ccc(F)cc1S2` [drawing 1562], in the data set with NSA mice, the “Hypothermia 0.3 mg/kg” value stood at 11 and the “Hypothermia 3 mg/kg” value worked out at 53.

Take `CC(C)CNC(=O)c1ccc2c(c1)N=C(c1ccc(Cl)cc1F)c1ccccc1S2` [drawing 1576]: in the data set on NSA mice, the “Hypothermia 0.3 mg/kg” value worked out at 0 and the “Hypothermia 3 mg/kg” value was found to be 71.

Consider `O=C(NCCc1ccncc1)c1ccc2c(c1)N=C(c1ccc(Cl)s1)c1ccccc1S2` [drawing 1609], for which, in the data set on NSA mice, the “Hypothermia 3 mg/kg” value came out at 67.

As for `CCCCNC(=O)c1ccc2c(c1)N=C(c1ccc(Cl)s1)c1cc(F)ccc1S2` [drawing 1601], in the data set on NSA mice, the “Hypothermia 3 mg/kg” value is on record as 17.

Take `Cc1csc(CNC(=O)c2ccc3c(c2)N=C(c2cccc(C)n2)c2ccccc2S3)c1` [drawing 1616]: in the data set on NSA mice, the “Hypothermia 0.3 mg/kg” value was determined as 42, the “Hypothermia 3 mg/kg” value is on record as 54 and the Hypothermia ID50 was determined as 1.8 mg/kg.

As for `O=C(NC1CCC(F)(F)CC1)c1ccc2c(c1)N=C(c1cccc(F)c1)c1ccccc1S2` [drawing 1608], in the data set with NSA mice, the “Hypothermia 3 mg/kg” value stood at 46.

Consider `CC(C)CCNC(=O)c1ccc2c(c1)N=C(c1cccc(Cl)c1)c1ccccc1S2` [drawing 1564], for which, in the data set on NSA mice, the “Hypothermia 0.3 mg/kg” value worked out at 35 and the “Hypothermia 3 mg/kg” value was found to be 64.

Regarding `CCCCNC(=O)c1ccc2c(c1)N=C(c1ccc(Cl)s1)c1cc(Cl)ccc1S2` [drawing 1577], in the data set with NSA mice, the “Hypothermia 3 mg/kg” value is on record as −9.

As to `O=C(NCc1cccnc1)c1ccc2c(c1)N=C(c1ccc(F)cc1)c1ccccc1S2` [drawing 1611], in the data set with NSA mice, the “Hypothermia 0.3 mg/kg” value was 11 and the “Hypothermia 3 mg/kg” value worked out at 28.

For `O=C(NN1CCCCCC1)c1ccc2c(c1)N=C(c1ccc(Cl)s1)c1ccccc1S2` [drawing 1584], in the data set with NSA mice, the “Hypothermia 0.3 mg/kg” value was 33, the “Hypothermia 3 mg/kg” value is on record as 83 and the Hypothermia ID50 worked out at 0.59 mg/kg.
